Experimental data published in US20250032623A1, “HETEROBIFUNCTIONAL COMPOUNDS AND THEIR USE IN TREATING DISEASE” (HALDA THERAPEUTICS OPCO, INC., priority 2021, published 2025).

Columns and labels:
KRAS G12C = molecular target: T1, KRAS G12C (Homo sapiens, UniProt P01116, G12C); test: KRAS G12C nucleotide exchange assay (SOS1 mediated, HTRF); assay type: biochemical; conditions: 1 hr pre-incubation at RT, read-out: IC50 (inhibition of KRas G12C)
T1 construct: Kras (aa 2-169), GST; purchased Reaction Biology Corporation (RBC)
Procedure: Exemplary compounds were tested for ability to inhibit KRas G12C.
KRAS target engagement (IC50 determination) was performed using a KRAS G12C nucleotide exchange assay (Reaction Biology Corporation). Specifically, compounds were tested against KRAS G12C in 10-point concentration IC50 mode with 3-fold serial dilution at a starting concentration of 10 μM. ARS1620 was used as a control. Compounds were pre-incubated with protein for 1 hr at RT. Parameters for the assay were:
In the method, Kras was mixed with a-GST Tb antibody (1.5× solution) and […] was delivered to reaction wells. Compounds were delivered using acoustic dispenser (Echo, Labcyte). Kras/aGST-Tb Ab/compound mixture was incubated for 1 hour at room temperature. A 3× solution of SOS1 and GTP* was prepared in reaction buffer. A […] aliquot of SOS1/GTP* solution was added to reaction well to initiate the exchange reaction. No—SOS1 reaction or max compound concentration was used as blank. IC50 determination was performed using a Sigmoidal dose response (variable slope) equation.

HeLa cells = test: Cellular growth inhibition assay (CellTiter-Glo), HeLa cells; assay type: cell-based; conditions: Homo sapiens, 72 h, three days compound treatment, CellTiter-Glo 2.0, read-out: CTG HELA GI50
Method in brief: (§1)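 HEK293 or HeLa cells seeded at 500 cells/well in DMEM with 10% FBS, treated after 24 h with titrated compound for three days at 37 °C, 5% CO2. CellTiter-Glo 2.0 luminescence read on Day 0 and Day 3, normalized to DMSO, four-parameter fit giving GI50.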

HEK293 cells = test: Cellular growth inhibition assay (CellTiter-Glo), HEK293 cells; assay type: cell-based; conditions: Homo sapiens, 72 h, three days compound treatment, CellTiter-Glo 2.0, read-out: CTG HEK293 GI50
Method in brief: as §1

T1 sequence (P01116 2-169 isoform P01116-2 G12C): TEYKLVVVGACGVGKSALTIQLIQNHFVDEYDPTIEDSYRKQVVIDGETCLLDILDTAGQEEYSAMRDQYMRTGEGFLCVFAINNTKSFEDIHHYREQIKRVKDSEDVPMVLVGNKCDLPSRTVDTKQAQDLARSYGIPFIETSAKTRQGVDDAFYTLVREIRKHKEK

| SMILES | IC50 (KRAS G12C) [µM] | GI50 (HeLa cells) [µM] | GI50 (HEK293 cells) [µM] |
| --- | --- | --- | --- |
| C=C(F)C(=O)N1CCN(c2nc(OCC3CCCN3CCOCCOCCOCCOCCOCCOCCOCCOCCNC(=O)c3cccc(-c4ccc5c(N6CCOCC6C)nc(N6CCOCC6C)nc5n4)c3)nc3c2CCN(c2cccc4cccc(Cl)c24)C3)CC1CC#N [Compound I-21, 3-[2,4-bis[(3R)-3-methylmorpholin-4-yl]pyrido[2,3-d]pyrimidin-7-yl]-N-[2-[2-[2-[2-[2-[2-[2-[2-[2-[(2S)-2-[[7-(8-chloro-1-naphthyl)-4-[(3S)-3-(cyanomethyl)-4-(2-fluoroprop-2-enoyl)piperazin-1-yl]-6,8-dihydro-SH-pyrido[3,4-d]pyrimidin-2-yl]oxymethyl]pyrrolidin-1-yl]ethoxy]ethoxy]ethoxy]ethoxy]ethoxy]ethoxy]ethoxy]ethoxy]ethyl]benzamide] | 0.1 to 1 |  |  |
| C=C(F)C(=O)N1CCN(c2nc(OC[C@@H]3CCCN3CCOCCOCCNC(=O)c3ccc(Nc4ncc5c(n4)N(C4CCCC4)[C@H](CC)C(=O)N5C)c(OC)c3)nc3c2CCN(c2cccc4cccc(Cl)c24)C3)C[C@@H]1CC#N [Compound I-63, N-(2-(2-(2-((S)-2-(((7-(8-chloronaphthalen-1-yl)-4-((S)-3-(cyanomethyl)-4-(2-fluoroacryloyl)piperazin-1-yl)-5,6,7,8-tetrahydropyrido[3,4-d]pyrimidin-2-yl)oxy)methyl)pyrrolidin-1-yl)ethoxy)ethoxy)ethyl)-4-(((R)-8-cyclopentyl-7-ethyl-5-methyl-6-oxo-5,6,7,8-tetrahydropteridin-2-yl)amino)-3-methoxybenzamide] | < 0.1 |  |  |
| C=C(F)C(=O)N1CCN(c2nc(OC[C@@H]3CCCN3CCOCCOCCOCCOCCOCCOCCNC(=O)c3ccc(Nc4ncc5c(n4)N(C4CCCC4)[C@H](CC)C(=O)N5C)c(OC)c3)nc3c2CCN(c2cccc4cccc(Cl)c24)C3)C[C@@H]1CC#N [Compound I-65, N-[2-[2-[2-[2-[2-[2-[2-[(2S)-2-[[7-(8-chloro-1-naphthyl)-4-[(3S)-3-(cyanomethyl)-4-(2-fluoroprop-2-enoyl)piperazin-1-yl]-6,8-dihydro-5H-pyrido1[3,4-d]pyrimidin-2-yl]oxymethyl]pyrrolidin-1-yl]ethoxy]ethoxy]ethoxy]ethoxy]ethoxy]ethoxy]ethyl]-4-[1[(7R)-8-cyclopentyl-7-ethyl-5-methyl-6-oxo-7H-pteridin-2-yl]amino]-3-methoxy-benzamide] | 0.1 to 1 |  |  |
| Cc1ccnc(C(C)C)c1-n1c(=O)nc(N2CCN(C(=O)/C=C/CN(C)CCOCCOCCOCCOCCOCCOCCON(C)C(=O)N3N=C(c4cc(F)ccc4F)SC3(CCCN)c3ccccc3)C[C@@H]2C)c2cc(F)c(-c3c(O)cccc3F)nc21 (stereo partly shown) [Compound I-77] | 1 to 5 |  |  |
| CN(C/C=C/C(=O)N1CCN(c2nc(OC[C@@H]3CCCN3C)nc3c2CCN(c2cccc4cccc(Cl)c24)C3)C[C@@H]1CC#N)CCOCCOCCOCCOCCOCCOCCON(C)C(=O)N1N=C(c2cc(F)ccc2F)SC1(CCCN)c1ccccc1 (stereo partly shown) [Compound I-78] | < 0.1 | < 0.5 | 0.5 to 1.5 |
| Cc1ccnc(C(C)C)c1-n1c(=O)nc(N2CCN(C(=O)/C=C/CN(C)CCOCCOCCOCCOCCOCCOCCOCCOCCON(C)C(=O)N3N=C(c4cc(F)ccc4F)SC3(CCCN)c3ccccc3)C[C@@H]2C)c2cc(F)c(-c3c(O)cccc3F)nc21 (stereo partly shown) [Compound I-79] | 1 to 5 |  |  |
| CN(C/C=C/C(=O)N1CCN(c2nc(OC[C@@H]3CCCN3C)nc3c2CCN(c2cccc4cccc(Cl)c24)C3)C[C@@H]1CC#N)CCOCCOCCOCCOCCOCCOCCOCCOCCON(C)C(=O)N1N=C(c2cc(F)ccc2F)SC1(CCCN)c1ccccc1 (stereo partly shown) [Compound I-80] | < 0.1 | < 0.5 | 0.5 to 1.5 |
| CC[C@@H]1C(=O)N(C)c2cnc(Nc3ccc(C(=O)NCCOCCN4CCN(C/C=C/C(=O)N5CCN(c6nc(OC[C@@H]7CCCN7C)nc7c6CCN(c6cccc8cccc(Cl)c68)C7)C[C@@H]5CC#N)CC4)cc3OC)nc2N1C1CCCC1 [Compound I-82] | < 0.1 | < 0.5 | < 0.5 |
| CN(C/C=C/C(=O)N1CCN(c2nc(OC[C@@H]3CCCN3C)nc3c2CCN(c2cccc4cccc(Cl)c24)C3)C[C@@H]1CC#N)CCOCCOCCOCCOCCON(C)C(=O)N1N=C(c2cc(F)ccc2F)SC1(CCCN)c1ccccc1 (stereo partly drawn) [Compound I-96, 2-(3-aminopropyl)-N-[2-[2-[2-[2-[2-[[(E)-4-[(2S)-4-[7-(8-chloro-1-naphthyl)-2-[[(2S)-1-methylpyrrolidin-2-yl]methoxy]-6,8-dihydro-5H-pyrido[3,4-d]pyrimidin-4-yl]-2-(cyanomethyl)piperazin-1-yl]-4-oxo-but-2-enyl]-methylamino]ethoxy]ethoxy]ethoxy]ethoxy]ethoxy]-5-(2,5-difluorophenyl)-N-methyl-2-phenyl-1,3,4-thiadiazole-3-carboxamide] | < 0.1 |  |  |
| C=C(F)C(=O)N1CCN(c2nc(OC[C@@H]3CCCN3CCCN(C)C(=O)N3N=C(c4cc(F)ccc4F)S[C@@]3(CCCN)c3ccccc3)nc3c2CCN(c2cccc4cccc(Cl)c24)C3)C[C@@H]1CC#N [Compound I-97, (2S)-2-(3-aminopropyl)-N-[3-[(2S)-2-[[7-(8-chloro-1-naphthyl)-4-[(3S)-3-(cyanomethyl)-4-(2-fluoroprop-2-enoyl)piperazin-1-yl]-6,8-dihydro-SH-pyrido[3,4-d]pyrimidin-2-yl]oxymethyl]pyrrolidin-1-yl]propyl]-5-(2,5-difluorophenyl)-N-methyl-2-phenyl-1,3,4-thiadiazole-3-carboxamide] | < 0.1 | 0.5 to 1.5 |  |
| C=C(F)C(=O)N1CCN(c2nc(OC[C@@H]3CCCN3CCCNC(=O)c3ccc(Nc4ncc5c(n4)N(C4CCCC4)[C@H](CC)C(=O)N5C)c(OC)c3)nc3c2CCN(c2cccc4cccc(Cl)c24)C3)C[C@@H]1CC#N [Compound I-102, N-[3-[(2S)-2-[[7-(8-chloro-1-naphthyl)-4-[(3S)-3-(cyanomethyl)-4-(2-fluoroprop-2-enoyl)piperazin-1-yl]-6,8-dihydro-5H-pyrido[3,4-d]pyrimidin-2-yl]oxymethyl]pyrrolidin-1-yl]propyl]-4-[[(7R)-8-cyclopentyl-7-ethyl-5-methyl-6-oxo-7H-pteridin-2-yl]amino]-3-methoxy-benzamide] | 0.1 to 1 |  | 0.5 to 1.5 |
| C=C(F)C(=O)N1CCN(c2nc(OC[C@@H]3CCCN3CCCOCCOCCNC(=O)c3ccc(Nc4ncc5c(n4)N(C4CCCC4)[C@H](CC)C(=O)N5C)c(OC)c3)nc3c2CCN(c2cccc4cccc(Cl)c24)C3)C[C@@H]1CC#N [Compound I-103, N-[2-[2-[3-[(2S)-2-1[[7-(8-chloro-1-naphthyl)-4-[(3S)-3-(cyanomethyl)-4-(2-fluoroprop-2-enoyl)piperazin-1-yl]-6,8-dihydro-5H-pyrido1[3,4-d]pyrimidin-2-yl]oxymethyl]pyrrolidin-1-yl]propoxy]ethoxy]ethyl]-4-[1[(7R)-8-cyclopentyl-7-ethyl-5-methyl-6-oxo-7H-pteridin-2-yl]amino]-3-methoxy-benzamide] | < 0.1 |  | 0.5 to 1.5 |
| C=C(F)C(=O)N1CCN(c2nc(OC[C@@H]3CCCN3CCCOCCOCCOCCNC(=O)c3ccc(Nc4ncc5c(n4)N(C4CCCC4)[C@H](CC)C(=O)N5C)c(OC)c3)nc3c2CCN(c2cccc4cccc(Cl)c24)C3)C[C@@H]1CC#N [Compound I-104, N-[2-[2-[2-[3-[(2S)-2-[[7-(8-chloro-1-naphthyl)-4-[(3S)-3-(cyanomethyl)-4-(2-fluoroprop-2-enoyl)piperazin-1-yl]-6,8-dihydro-5H-pyrido[3,4-d]pyrimidin-2-yl]oxymethyl]pyrrolidin-1-yl]propoxy]ethoxy]ethoxy]ethyl]-4-[[(7R)-8-cyclopentyl-7-ethyl-5-methyl-6-oxo-7H-pteridin-2-yl]amino]-3-methoxy-benzamide] | < 0.1 |  | 0.5 to 1.5 |
| C=C(F)C(=O)N1CCN(c2nc(OC[C@@H]3CCCN3CCCOCCOCCOCCOCCNC(=O)c3ccc(Nc4ncc5c(n4)N(C4CCCC4)[C@H](CC)C(=O)N5C)c(OC)c3)nc3c2CCN(c2cccc4cccc(Cl)c24)C3)C[C@@H]1CC#N [Compound I-105, N-[2-[2-[2-[2-[3-[(2S)-2-[[7-(8-chloro-1-naphthyl)-4-[(3S)-3-(cyanomethyl)-4-(2-fluoroprop-2-enoyl)piperazin-1-yl]-6,8-dihydro-5H-pyrido[3,4-d]pyrimidin-2-yl]oxymethyl]pyrrolidin-1-yl]propoxy]ethoxy]ethoxy]ethoxy]ethyl]-4-[[(7R)-8-cyclopentyl-7-ethyl-5-methyl-6-oxo-7H-pteridin-2-yl]amino]-3-methoxy-benzamide] | < 0.1 |  | 0.5 to 1.5 |
